The target in experiment [1] is T1, wild-type Androgen Receptor (AR-wt) (Homo sapiens, UniProt P10275).
T1 construct: expressed in transfected cells; host or cells: LNCaP
T1 sequence (P10275 1-920): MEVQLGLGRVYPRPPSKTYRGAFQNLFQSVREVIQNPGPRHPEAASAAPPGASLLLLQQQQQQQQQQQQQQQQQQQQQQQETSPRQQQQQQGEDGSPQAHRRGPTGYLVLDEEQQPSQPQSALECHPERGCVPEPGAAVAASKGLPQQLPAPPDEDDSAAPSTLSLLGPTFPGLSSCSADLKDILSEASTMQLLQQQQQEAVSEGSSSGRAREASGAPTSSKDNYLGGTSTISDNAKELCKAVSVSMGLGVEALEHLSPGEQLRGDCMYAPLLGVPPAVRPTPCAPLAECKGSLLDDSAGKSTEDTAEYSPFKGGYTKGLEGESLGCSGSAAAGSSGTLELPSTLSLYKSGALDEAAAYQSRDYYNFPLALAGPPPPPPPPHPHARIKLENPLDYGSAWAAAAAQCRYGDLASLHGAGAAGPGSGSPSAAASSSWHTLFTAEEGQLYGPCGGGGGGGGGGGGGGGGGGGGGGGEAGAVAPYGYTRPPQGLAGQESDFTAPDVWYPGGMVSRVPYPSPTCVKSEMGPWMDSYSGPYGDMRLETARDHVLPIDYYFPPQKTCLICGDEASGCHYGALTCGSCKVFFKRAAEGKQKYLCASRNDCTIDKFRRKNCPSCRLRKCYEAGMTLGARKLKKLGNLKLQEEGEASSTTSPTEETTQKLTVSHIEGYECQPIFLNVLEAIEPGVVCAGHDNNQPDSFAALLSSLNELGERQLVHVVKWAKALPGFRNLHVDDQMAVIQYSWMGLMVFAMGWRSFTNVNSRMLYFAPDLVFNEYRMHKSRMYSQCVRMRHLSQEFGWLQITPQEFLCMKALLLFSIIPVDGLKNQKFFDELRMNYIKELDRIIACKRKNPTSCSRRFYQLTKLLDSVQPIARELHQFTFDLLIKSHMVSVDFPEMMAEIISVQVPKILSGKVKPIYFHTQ
The experiment is described as follows: AR reporter assay, LNCaP-AR-wt AG (agonist mode). The class given is cell-based. As to conditions: for Emax: read-out: LNCaP-AR-wt AG MAX % Stim. The text has this:
(§1) LNCaP AR (cs) and LNCaP F876L luciferase cell lines were generated by transduction of each cell line (description of cell line generation Joseph J D, Lu N, Qian J, Sensintaffar J, Shao G, Brigham D, Moon M, Maneval E C, Chen I, Darimont B, Hager J H. A clinically relevant androgen receptor mutation confers resistance to second-generation antiandrogens enzalutamide and ARN-509. Cancer Discov 2013; 3:1020-1029) with an Androgen Response Element Firefly Luciferase lentiviral construct at an MOI (multiplicity of infection) of 50 following the manufacturer's instructions (Qiagen). A stable pooled-population cell line was generated using puromycin (Life Technologies) selection at 1:10,000 v/v. The protocol below was used for both cell lines and for testing of the compounds of Formula (I) of the present invention.
(§2) LNCaP cells were grown to about 80% confluence, media removed and cells rinsed in Hank's balanced salt solution prior to separation from the plate with 0.05% Trypsin EDTA. Cells were lifted and trypsin negated in complete CSS (charcoal stripped serum) culture media. CSS was maintained on cells for 24 h prior to assay, at which time 5,000 cells/[…] were seeded in Greiner 384 well White/White Tissue Culture Treated Plates and incubated for a further 1-2 hours at 37° C., 5% CO2, prior to addition of 10 μL of 4× Test Compounds (compounds described herein) or Assay Controls (all diluted in complete media containing 10% css). A further 10 μL of 4× R-1881 Agonist Challenge (antagonist assay) or Buffer (agonist assay) was then added (all diluted in complete media containing 10% css). Agonist challenge was at 400 pM for WT assay and 600 pM for F876L assay. Plates containing cells and compounds herein were incubated for a further 20-24 hours at 37° C., 5% CO2 before addition of 40 μL/well of Steady-Glo Luciferase Assay System Reagent (Promega#E2520). After 1 h, plates were read for luminescence on a BMG Pherastar.
((Sample RLU−Ave Low Control RLU[DMSO/Buffer])/(Ave High Control RLU [1 μM R-1881]—Ave Low Control RLU[DMSO/Buffer]))*100.
(§3) EC/IC50 calculations were achieved utilizing calculated RLU data and data fitting macros. Data were fit using least-squares methods to the following formula: […]
(§4) As used herein: • pIC50 is defined as −Log10(IC50 expressed in [Molar]). • pEC50 is defined as −Log10(EC50 expressed in [Molar]). • MAX % Inh is defined as the maximum % inhibition of R1881 control response observed for a compound over the tested concentration range. • MAX % Stim is defined as the maximum % stimulation (agonist response) observed for a compound over the tested concentration range. • LNCaP-AR-wt ANT refers to the reporter assay using LNCaP cells stably transfected with the Androgen Response Element Firefly Luciferase lentiviral construct and wild-type Androgen Receptor (AR-wt) in Antagonist mode. • LNCaP-AR-wt AG refers to the reporter assay using LNCaP cells stably transfected with the Androgen Response Element Firefly Luciferase lentiviral construct and wild-type Androgen Receptor (AR-wt) in Agonist mode. • LNCaP-AR-F876L ANT refers to the reporter assay using LNCaP cells stably transfected with the Androgen Response Element Firefly Luciferase lentiviral construct and F876L mutant Androgen Receptor (AR-F876L) in Antagonist mode. • LNCaP-AR-F876L AG refers to the reporter assay using LNCaP cells stably transfected with the Androgen Response Element Firefly Luciferase lentiviral construct and F876L mutant Androgen Receptor (AR-F876L) in Agonist mode.
On the technique in general: A reporter such as luciferase makes a cellular process visible.

The target of experiment [2] is T1, wild-type Androgen Receptor (AR-wt). The experiment is described as follows: AR reporter assay, LNCaP-AR-wt ANT (antagonist mode). The following applies: for Emax: read-out: LNCaP-AR-wt ANT MAX % Inh. The class given is cell-based.
Text: as §1, §2
Agonist challenge: R-1881 (Metribolone)—Agonist
Antagonist control (low control): 5-(5-(4-((1-Methylpiperidin-4-yl)oxy)phenyl)-8-oxo-6-thioxo-5,7-diazaspiro[3.4]octan-7-yl)-3-(trifluoromethyl)picolinonitrile (WO 2011/103202, EXAMPLE 19, Compound 129, CAS #1332390-06-3).
(1−(Sample RLU−Ave Low Control RLU[10 μM Antagonist Control])/(Ave High Control RLU [400 pM R-1881]−Ave Low Control RLU[10 μM Antagonist Control]))*100.
as §3, §4

[3] abbreviates: antagonist mode, 400 pM R-1881 challenge, luciferase reporter, -Log10(IC50 in Molar), read-out: LNCaP-AR-wt ANT pIC50 (converted).

Experimental findings from US20190337924A1, “SUBSTITUTED HYDANTOIN AND THIOHYDANTOIN DERIVATIVES AS ANDROGEN RECEPTOR ANTAGONISTS” (Janssen Pharmaceutica NV, priority 2016, published 2019) are described below.

Counter-ions that a name gives are not always drawn. Like-named read-outs stand apart in the source and are kept apart here.

Turning to `CN1CCC(Oc2ccc(N3C(=S)N(c4ccc(C#N)c(Cl)c4)C(=O)C3(C)C)cn2)CC1` [Compound 10, 2-Chloro-4-(4,4-dimethyl-3-(6-((1-methylpiperidin-4-yl)oxy)pyridin-3-yl)-5-oxo-2-thioxoimidazolidin-1-yl)benzonitrile hydrochloride], in experiment [1], the EC50 is greater than 15100 nM and the Emax stood at 0.1%. Further, in experiment [2], the IC50 was 63.1 nM and the Emax amounted to 102%.

As to `CC1(C)C(=O)N(c2ccc(C#N)c(C(F)(F)F)c2)C(=S)N1c1ccc(OC2CCNCC2)cc1` [Compound 1, 4-(4,4-Dimethyl-5-oxo-3-(4-(piperidin-4-yloxy)phenyl)-2-thioxoimidazolidin-1-yl)-2-(trifluoromethyl)benzonitrile], in experiment [1], the EC50 was greater than 15100 nM and the Emax turned out to be 0.6%. In experiment [2], the IC50 is 75.9 nM and the Emax came out at 106%.

In turn, `COc1cc(N2C(=O)C3(CCC3)N(c3ccc(OC4CCN(C)CC4)cc3)C2=S)ccc1C#N` [Compound 19, 2-Methoxy-4-(5-(4-((1-methylpiperidin-4-yl)oxy)phenyl)-8-oxo-6-thioxo-5,7-diazaspiro[3.4]octan-7-yl)benzonitrile] returned an EC50 in experiment [1] greater than 15100 nM. Moreover, the Emax in experiment [1] is -0.1%; in experiment [2], 105%. For the same compound, in experiment [2] (setting [3]), the IC50 was 141 nM.

For the compound `CN1CCC(Oc2ccc(N3C(=S)N(c4ccc(C#N)c(C(F)(F)F)c4)C(=O)C34CCC4)cn2)CC1` [Compound 14, 4-(5-(6-((1-Methylpiperidin-4-yl)oxy)pyridin-3-yl)-8-oxo-6-thioxo-5,7-diazaspiro[3.4]octan-7-yl)-2-(trifluoromethyl)benzonitrile], in experiment [1], the EC50 is greater than 15100 nM and the Emax came to 0.2%. In experiment [2], the IC50 is 89.1 nM and the Emax was 104%.

For `CC1(C)C(=O)N(c2ccc(C#N)c(Cl)c2)C(=S)N1c1ccc(OC2CCNCC2)nc1` [Compound 9, 2-Chloro-4-(4,4-dimethyl-5-oxo-3-(6-(piperidin-4-yloxy)pyridin-3-yl)-2-thioxoimidazolidin-1-yl)benzonitrile hydrochloride], in experiment [1], the EC50 was greater than 15100 nM and the Emax was -0.2%. For the same compound, in experiment [2], the IC50 is 57.5 nM and the Emax was found to be 102%.

`CN1CCC(Oc2ncc(N3C(=S)N(c4ccc(C#N)c(C(F)(F)F)c4)C(=O)C34CCC4)cn2)CC1` [Compound 16, 4-(5-(2-((1-Methylpiperidin-4-yl)oxy)pyrimidin-5-yl)-8-oxo-6-thioxo-5,7-diazaspiro[3.4]octan-7-yl)-2-(trifluoromethyl)benzonitrile] registered an EC50 in experiment [1] greater than 15100 nM. Further, the Emax in experiment [1] was -0.1%; in experiment [2] it was 102%. The IC50 in experiment [2] (setting [3]) is 209 nM.

Turning to `CN1CCC(Oc2ccc(N3C(=S)N(c4ccc(C#N)c(C(F)(F)F)c4)C(=O)C3(C)C)cc2)CC1` [Compound 2, 4-(4,4-Dimethyl-3-(4-((1-methylpiperidin-4-yl)oxy)phenyl)-5-oxo-2-thioxoimidazolidin-1-yl)-2-(trifluoromethyl)benzonitrile hydrochloride], in experiment [1], the EC50 was greater than 15100 nM and the Emax is -0.2%. Further, in experiment [2], the IC50 is 97.7 nM and the Emax turned out to be 104%.

For the compound `Cc1cc(N2C(=O)C3(CCC3)N(c3ccc(OC4CCN(C)CC4)nc3)C2=S)ccc1C#N` [Compound 18, 2-Methyl-4-(5-(6-((1-methylpiperidin-4-yl)oxy)pyridin-3-yl)-8-oxo-6-thioxo-5,7-diazaspiro[3.4]octan-7-yl)benzonitrile], in experiment [1] (agonist mode (buffer, no R-1881), -Log10(EC50 in Molar), read-out: LNCaP-AR-wt AG pEC50 (converted)), the EC50 is greater than 15100 nM. In addition, the Emax in experiment [1] came out at 0.6%; in experiment [2], 99.4%. In experiment [2] (setting [3]), the IC50 was 36.3 nM.

With `N#Cc1ccc(N2C(=O)C3(CCC3)N(c3cnc(OC4CCNCC4)nc3)C2=S)cc1C(F)(F)F` [Compound 15, 4-(8-Oxo-5-(2-(piperidin-4-yloxy)pyrimidin-5-yl)-6-thioxo-5,7-diazaspiro[3.4]octan-7-yl)-2-(trifluoromethyl)benzonitrile], in experiment [1], the EC50 is greater than 15100 nM and the Emax was -0.2%. The IC50 in experiment [2] (setting [3]) is 158 nM. Besides, the Emax in experiment [2] turned out to be 102%.

On to `N#Cc1ccc(N2C(=O)C3(CCC3)N(c3ccc(OC4CCNCC4)cc3)C2=S)cc1C(F)(F)F` [Compound 11, 4-(8-Oxo-5-(4-(piperidin-4-yloxy)phenyl)-6-thioxo-5,7-diazaspiro[3.4]octan-7-yl)-2-(trifluoromethyl)benzonitrile], for which, in experiment [1], the EC50 is greater than 15100 nM and the Emax was 0.1%. Also, in experiment [2], the IC50 is 331 nM and the Emax amounted to 105%.

With `CN1CCC(Oc2ccc(N3C(=S)N(c4ccc(C#N)c(Cl)c4)C(=O)C34CCC4)cn2)CC1` [Compound 24, 2-Chloro-4-(5-(6-((1-methylpiperidin-4-yl)oxy)pyridin-3-yl)-8-oxo-6-thioxo-5,7-diazaspiro[3.4]octan-7-yl)benzonitrile hydrochloride], in experiment [1], the EC50 is greater than 15100 nM and the Emax came to 0.3%. Moreover, in experiment [2], the IC50 is 95.5 nM and the Emax was 102%.

Regarding `CN1CCC(Oc2ccc(N3C(=S)N(c4ccc(C#N)c(Cl)c4)C(=O)C34CCC4)cc2)CC1` [Compound 22, 2-Chloro-4-(5-(4-((1-methylpiperidin-4-yl)oxy)phenyl)-8-oxo-6-thioxo-5,7-diazaspiro[3.4]octan-7-yl)benzonitrile], in experiment [1], the EC50 is greater than 15100 nM and the Emax is -0.2%. For the same compound, in experiment [2], the IC50 is 245 nM and the Emax was found to be 98.4%.
